# According to ChEMBL document CHEMBL1201862, “PubChem BioAssay data set” (2004):
#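 Growth conditions: 96-well plates. Treatment: test compound, 48 hours, 5 concentrations. Analysis: linear interpolation between bracketing concentrations; unreached endpoints set to highest concentration. At the GI50, growth is halved.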 Activity calls are given as the source filed them. No stated cut-off is given here; in the data, active = GI50 up to about 1.1 µM and inactive = higher.
# Tests used:
# Test in all cases: inhibition of tumour cell growth, NCI panel, 48 h
# SK-MEL-5 = tested on: SK-MEL-5
# CAKI-1 = tested on: CAKI-1
# OVCAR-8 = tested on: OVCAR-8
# NCI-H460 = tested on: NCI-H460
# KM12 = tested on: KM12
# SK-MEL-2 = tested on: SK-MEL-2
# HCC 2998 = tested on: HCC 2998
# SF-295 = tested on: SF-295
# 786-0 = tested on: 786-0
# DU-145 = tested on: DU-145
# CCRF-CEM = tested on: CCRF-CEM
# OVCAR-5 = tested on: OVCAR-5
# SF-539 = tested on: SF-539
# NCI-H522 = tested on: NCI-H522
# LOX IMVI = tested on: LOX IMVI
# HL-60 = tested on: HL-60
# ACHN = tested on: ACHN
# NCI-H23 = tested on: NCI-H23
# HCT-15 = tested on: HCT-15
# U-251 = tested on: U-251
SMILES,GI50 (SK-MEL-5),GI50 (CAKI-1),GI50 (OVCAR-8),GI50 (NCI-H460),GI50 (KM12),GI50 (SK-MEL-2),GI50 (HCC 2998),GI50 (SF-295),GI50 (786-0),GI50 (DU-145),GI50 (CCRF-CEM),GI50 (OVCAR-5),GI50 (SF-539),GI50 (NCI-H522),GI50 (LOX IMVI),GI50 (HL-60),GI50 (ACHN),GI50 (NCI-H23),GI50 (HCT-15) [µM],GI50 (U-251)
CC(C)=CC(=O)O[C@@H]1CC(C)(C)CC2C3=CCC4[C@]56CC[C@](O)(OC5)C(C)(C)C6CC[C@@]4(C)C3(C)CC[C@]21C(=O)O (stereo not given in full),> 100 µM (inactive),> 100 µM (inactive),59.6 µM (inactive),35.2 µM (inactive),33 µM (inactive),> 100 µM (inactive),> 100 µM (inactive),56.5 µM (inactive),69.8 µM (inactive),56.4 µM (inactive),41.7 µM (inactive),> 100 µM (inactive),38.5 µM (inactive),51.6 µM (inactive),17.1 µM (inactive),44.2 µM (inactive),25.8 µM (inactive),26.1 µM (inactive),31.4,32.9 µM (inactive)
CC(=O)OCC(OC(C)=O)C(OC(C)=O)C(OC(C)=O)C(/C=N\Nc1nc2ccccc2c(=O)[nH]1)=N/Nc1nc2ccccc2c(=O)[nH]1 (stereo not given),> 100 µM (inactive),> 100 µM (inactive),> 100 µM (inactive),> 100 µM (inactive),97.7 µM (inactive),> 100 µM (inactive),85.5 µM (inactive),> 100 µM (inactive),> 100 µM (inactive),> 100 µM (inactive),> 100 µM (inactive),> 100 µM (inactive),18.2 µM (inactive),> 100 µM (inactive),> 100 µM (inactive),> 100 µM (inactive),> 100 µM (inactive),> 100 µM (inactive),> 100,> 100 µM (inactive)
CCCN(CCCCN1C(=O)c2ccccc2C1=O)CC1COc2ccccc2O1 (stereo not given),28.6 µM (inactive),> 100 µM (inactive),> 100 µM (inactive),53.5 µM (inactive),> 100 µM (inactive),> 100 µM (inactive),83.2 µM (inactive),> 100 µM (inactive),> 100 µM (inactive),> 100 µM (inactive),25.8 µM (inactive),> 100 µM (inactive),83.2 µM (inactive),> 100 µM (inactive),> 100 µM (inactive),14.1 µM (inactive),> 100 µM (inactive),55.3 µM (inactive),52.2,74 µM (inactive)
C=C(Cl)C(Cl)(CBr)CCC(Cl)C(C)(C)Cl (stereo not given),10.6 µM (inactive),1.08 µM (active),2.36 µM (inactive),1.19 µM (inactive),0.375 µM (active),0.238 µM (active),4.52 µM (inactive),3.17 µM (inactive),0.388 µM (active),1.35 µM (inactive),8.63 µM (inactive),2.83 µM (inactive),0.443 µM (active),8.2 µM (inactive),12.9 µM (inactive),0.713 µM (active),1.77 µM (inactive),8.89 µM (inactive),3.57,0.597 µM (active)
C/C(=N\NC(=S)NCc1ccccc1)c1nc2cccnc2[nH]1,3.57 µM (inactive),6.52 µM (inactive),10.1 µM (inactive),4.29 µM (inactive),6.34 µM (inactive),13.1 µM (inactive),20.1 µM (inactive),6.41 µM (inactive),6.92 µM (inactive),4.84 µM (inactive),3.27 µM (inactive),7.23 µM (inactive),5.73 µM (inactive),15.1 µM (inactive),6.12 µM (inactive),3.71 µM (inactive),3.57 µM (inactive),12.8 µM (inactive),4.45,5.3 µM (inactive)
CCOP(=O)(OCC)/C(F)=C/c1ccc(F)cc1,> 100 µM (inactive),> 100 µM (inactive),> 100 µM (inactive),> 100 µM (inactive),> 100 µM (inactive),> 100 µM (inactive),> 10 µM (inactive),> 100 µM (inactive),> 100 µM (inactive),> 100 µM (inactive),> 100 µM (inactive),> 100 µM (inactive),> 100 µM (inactive),> 100 µM (inactive),> 100 µM (inactive),> 100 µM (inactive),> 100 µM (inactive),> 100 µM (inactive),> 100,> 100 µM (inactive)
